Data on 3 compounds can be found in patent publication US4745109A, “Suicide inhibitors of aromatase” (Washington Research Foundation, priority 1984, dated 1988).

The conditions of series [1]: in vivo; cited from earlier work.
Series [2] has as its target T1, aromatase (Homo sapiens, UniProt P11511).
T1 construct: Placental microsomes were prepared as previously described; from tissue; host or cells: human placenta, microsomes
T1 sequence (P11511 1-503): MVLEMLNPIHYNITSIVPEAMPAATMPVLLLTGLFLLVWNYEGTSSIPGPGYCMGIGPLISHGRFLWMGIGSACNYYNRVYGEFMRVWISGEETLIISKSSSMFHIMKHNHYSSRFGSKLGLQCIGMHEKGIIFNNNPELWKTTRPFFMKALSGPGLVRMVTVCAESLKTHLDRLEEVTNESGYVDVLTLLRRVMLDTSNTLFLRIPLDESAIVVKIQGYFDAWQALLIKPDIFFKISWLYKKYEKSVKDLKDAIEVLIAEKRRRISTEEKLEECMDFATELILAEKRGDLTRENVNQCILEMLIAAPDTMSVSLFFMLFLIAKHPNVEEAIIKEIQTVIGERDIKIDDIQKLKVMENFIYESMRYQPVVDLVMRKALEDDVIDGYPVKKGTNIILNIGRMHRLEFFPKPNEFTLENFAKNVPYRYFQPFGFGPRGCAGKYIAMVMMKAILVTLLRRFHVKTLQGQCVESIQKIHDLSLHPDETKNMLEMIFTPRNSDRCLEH
In words: NADPH and Oxygen Dependency Experiments: aromatase inactivation in placental microsomes, tritium release assay. The class given is biochemical. The conditions noted are these: 500 nM inhibitor, preincubation 3 minutes at 30° C., not corrected for background loss (approximately 5%). As to the method:
(§1) The activity of 17β-hydroxy-10β-mercaptoestr-4-en-3-one and 19-mercaptoandrost-4-en-3,17-dione were tested as suicide inhibitors of aromatase according to the method of Coury et al. (J. Biol. Chem., 256, 1076 (1981)) in human placental microsomes. The activity was measured by the well-established tritium release assay according to Thompson et al. (J. Biol. Chem., 249, 5364 (1974)) using 1β,2β-[^3 H]androstenedione (40-60 Ci/mole) obtained from New England Nuclear in Boston, MA.
(§2) Human placenta were obtained from the University Hospital, University of Washington, Seattle, WA, and were used within a few hours of delivery. Placental microsomes were prepared as previously described. (Coury et al). Protein concentration was determined by the method of Lowry (J. Biol. Chem., 193, 265 (1951)).
(§3) All incubations were carried out in 10 mM phosphate buffer, pH 7.5, 100 mM KCl, 1/mM EDTA. Incubations contained 1.0 mg/ml microsomal protein, 32 mg/ml propylene glycol, 0.36 mM NADPH, 11.5 mM glucose-6-phosphate dehydrogenase and 10 mM MgCl2 and were allowed to warm to 30° C. for 5 minutes. Inhibitors were added as 10 μl/ml from 10 μM stock solutions in ethanol to give final inhibitor concentrations of 100 nM. At various times, from 0 to 70 minutes, 400 μl aliquots in duplicate were removed and were added to […] of a 10 mM phosphate buffer, pH 7.5, 100 mM KCl, 1 mM EDTA containing 40 μM 1β,2β,[^3 H]androstenedione (20 Ci/mol). Tritium release incubations were conducted at 37° C. for 10 minutes and stopped by addition of 5 ml 20% acetone/chloroform. Following vortexing at high speeds for 30 seconds and centrifugation, 100 μl of the water layer was removed and mixed with 5 ml LSC cocktail and counted. Percent activity remaining is the number of DPMs after a time period divided by the number of DPMs at time zero multiplied by 100.
Incubations containing 1.0 mg/ml microsomal protein, 32 mg/ml propylene glycol, with or without 0.36 mM NADPH, were warmed to 30° C. for 5 minutes. Inhibitors were added in ethanol (10 μl/ml of incubate) to give inhibitor concentrations of 500 nM. Controls contained only ethanol and NADPH. After incubating 0 and 3 minutes at 30° C., 400 μl aliquots, in duplicate, from the NADPH containing incubations were added to the tritium release assay. For incubations lacking NADPH, 400 μl aliquots were removed and added to 100 μl phosphate buffer containing 1.4 mM NADPH and […] 1β,2β[^3 H]androstenedione (20 Ci/mol). Tritium release assays were conducted as described above.
Incubations containing 1.0 mg/ml microsomal protein, 32 mg/ml propylene glycol, and 500 nM inhibitor or ethanol (10 μl/ml) were prepared. Incubations run under anaerobic conditions were alternately evacuated and purged with deoxygenated nitrogen ten times at 0° C. Both anaerobic and aerobic incubations were allowed to warm to 30° C. for 5 minutes, and 10 μl/ml of a 1.4 mM NADPH solution was added via a syringe. After incubating 0 and 3 minutes at 30° C., triplicate aliquots of 400 μl were removed and added to tritium release assays.

The target of series [3] is T1, aromatase. In words: Androstenedione and Cysteine Protection Experiments (t1/2 of aromatase inactivation), tritium release assay. The class given is biochemical. The conditions noted are these: 1 at 500 nM, 2 at 167 nM, 30° C., NADPH, not corrected for background loss; for t1/2 (mean ± SD), time to bring about a 50% inhibition of aromatase: inhibitor alone; for t1/2 (mean ± SD), inhibitor and androstenedione: with androstenedione 5.0 μM; for t1/2 (mean ± SD), inhibitor and cysteine: with cysteine 1.0 mM. As to the method: as §1, §2, §3
Incubations containing 1.0 mg/ml microsomal protein, 32 mg/ml propylene glycol, and 0.36 mM NADPH were warmed to 30° C. for 5 minutes. Addition of ethanol solutions (10 μl/ml) of inhibitors with and without androstenedione gave final concentrations of 500 nM 17β-hydroxy-10β-mercaptoestr-4-en-3-one, 167 nM 19-mercaptoandrost-4-en-3,17-dione, with and without 5.0 μM androstenedione. After 0, 1, 2, and 3 minutes at 30° C., 400 μl aliquots, in duplicate, were removed and added to the tritium release assay.
Incubations containing 1.0 mg/ml microsomal protein, 32 mg/ml propylene glycol, and 0.36 mM NADPH, with or without 1.0 mM cysteine, were warmed to 30° C. for 5 minutes. Addition of inhibitor solution (10 μl/ml) gave final concentrations of 500 nM 17β-hydroxy-10β-mercapto-4-en-3-one and 167 nM 19-mercaptoandrost-4-en-3,17-dione. After incubating 0, 1, 2, and 3 minutes, 400 μl aliquots, in duplicate, were removed and added to tritium release assays.

In series [4] the target is T1, aromatase. In words: Irreversibility Experiments (diffusion dialysis), tritium release assay. The format is biochemical. Particulars: 250 nM inhibitor, preincubation 5 minutes at 30° C. As to the method:
as §1, §2
Incubations containing 1.8 mg/ml microsomal protein, 32 mg/ml propylene glycol, 0.7 mM NADPH, and 250 nM of inhibitor were kept at 4° C. For zero time points, 400 μl aliquots, in triplicate, were removed and added to tritium release assays. Remaining microsomes were incubated at 30° C. for 5 minutes, cooled in ice to 4° C.; and 400 μl aliquots, in triplicate, were added to tritium release assays to determine remaining activity. Remaining microsomes were added to dialysis tubing (Spectrapore® membrane tubing, 3500 dalton cut off) and dialyzed against a 10 mM phosphate buffer, pH 7.5, 100 mM KCl, 1 mM EDTA, and 5% propylene glycol at 0° C. for 20 hours. To serve as controls, incubations containing the same concentrations of inhibitor, but no cofactors, were carried through the same procedures.
After dialysis, 400 μl aliquots, in duplicate, were added to 100 μl phosphate buffer containing 2.9 mM NADPH and 40 μM 1β,2β[^3 H]androstenedione (20 Ci/mol) and incubated at 37° C. for 10 minutes. The usual workup for the tritium release assay was followed. Protein content for all incubations fell approximately 25% after dialysis. Enzyme activity fell approximately 60% after dialysis.

For series [5], the target named is T1, aromatase. In words: Concentration-Dependent Inactivation (rate constant of inactivation). The conditions noted are these: relative to 19-mercaptoandrost-4-en-3,17-dione. The class given is biochemical. As to the method: as §1, §2
Incubations containing 1.0 mg/ml microsomal protein, 32 mg/ml propylene glycol, and 0.36 mM NADPH were warmed to 30° C. for 5 minutes. Various concentrations of inhibitor were added to the incubations in ethanol (10 μl/ml of incubate). Ethanol (10 μl/ml was) added as a control. After incubating 0, 1, 2, and 3 minutes at 30° C., 400 μl aliquots, in duplicate, were removed and were added to the tritium release assay described above.

[6] abbreviates: N2 atmosphere (anaerobic), read-out: % Activity Remaining (mean ± SD), + N2 atmosphere.
[7] abbreviates: with NADPH, aerobic, read-out: % Activity Remaining (mean ± SD).
Where [8] appears, read: without NADPH, read-out: % Activity Remaining (mean ± SD), - NADPH.
Setting [9] is: after dialysis 20 hours at 0° C., read-out: Activity Remaining (mean ± SD), After Dialysis.
Setting [10] is: 5 min, before dialysis, read-out: Activity Remaining (mean ± SD), Before Dialysis.

The structures appear in SMILES notation. Entries after “also recorded” stand apart in the source; their conditions may differ. Read-outs that look alike come from different tables or passages of the source.

Consider `CCC1(c2ccc(N)cc2)CCC(=O)NC1=O` (stereo not drawn) [aminoglutethimide], for which the side effects entry in series [1] is “lethargy or tumor lysis syndrome; also recorded: sedative which has the side effect of lethargy”.
On to `C[C@]12CC[C@H]3[C@@H](CCC4=CC(=O)CC[C@@]43S)[C@@H]1CC[C@@H]2O` [compound 1, 17β-hydroxy-10β-mercaptoestr-4-en-3-one], for which the remaining activity at 0.5 µM is 95 ± 2% at aromatase [2] (setting [6]), 67 ± 2% on aromatase [2] (setting [7]) and 96 ± 3% on aromatase [2] (setting [8]). Further, the “t1/2 (mean ± SD), time to bring about a 50% inhibition of aromatase” value at aromatase [3] worked out at 4.68 ± 0.833 min. Also, the “t1/2 (mean ± SD), inhibitor and androstenedione” value at aromatase [3] stood at 12.6 ± 0.833 min. Besides, the “t1/2 (mean ± SD), inhibitor and cysteine” value at aromatase [3] turned out to be 5.17 ± 0.967 min. For the same compound, the figures for the remaining activity at 0.25 µM at aromatase [4] (setting [9]) and at aromatase [4] (setting [10]) were 52 ± 3% and 49 ± 6%, respectively. The “rate constant ratio, 17β-hydroxy-10β-mercaptoestr-4-en-3-one vs 19-mercaptoandrost-4-en-3,17-dione” value on aromatase [5] is reported as “about three”.
Consider `C[C@]12CC[C@H]3[C@@H](CCC4=CC(=O)CC[C@@]43CS)[C@@H]1CCC2=O` [compound 2, 19-mercaptoandrost-4-en-3,17-dione], for which the results for the remaining activity at 0.5 µM at aromatase [2] (setting [6]), at aromatase [2] (setting [7]) and at aromatase [2] (setting [8]) were 95 ± 5%, 77 ± 4% and 95 ± 5%, respectively. Also, at aromatase [3], the “t1/2 (mean ± SD), time to bring about a 50% inhibition of aromatase” value was 7.7 ± 1.25 min. The “t1/2 (mean ± SD), inhibitor and androstenedione” value on aromatase [3] was determined as 12.2 ± 0.35 min. At aromatase [3], the “t1/2 (mean ± SD), inhibitor and cysteine” value stood at 6.87 ± 0.333 min. Further, the remaining activity at 0.25 µM was determined as 58 ± 2% on aromatase [4] (setting [9]) and 50 ± 5% at aromatase [4] (setting [10]).
